Measurements taken from PubChem BioAssay (NCI).
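Dose response: 5 concentrations. Exposure: 48 h. Format: 96-well plates. Endpoint: linear interpolation; highest concentration if not reached. The concentration for full growth arrest is given as TGI.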

How the values were obtained:
Experiment in all cases: NCI anticancer screen, dose series, 48 h
[1] = system: RXF 393 renal
[2] = system: SNB-75 CNS
[3] = system: CAKI-1 renal
[4] = system: COLO 205 colon
[5] = system: M14 melanoma
[6] = system: TK-10 renal
[7] = system: KM20L2 colon
[8] = system: NCI-H23 lung
[9] = system: OVCAR-8 ovarian
[10] = system: OVCAR-3 ovarian
[11] = system: SF-295 CNS
[12] = system: SNB-19 CNS
[13] = system: HL-60(TB) leukemia
[14] = system: RPMI-8226 leukemia
[15] = system: KM12 colon
[16] = system: LXFL 529 NSCLC
[17] = system: SF-268 CNS
[18] = system: NCI-H460 lung
[19] = system: SK-MEL-28 melanoma
[20] = system: U251 CNS
[21] = system: 786-0 renal
[22] = system: SW-620 colon
[23] = system: M19-MEL melanoma
[24] = system: A498 renal
[25] = system: UACC-62 melanoma
[26] = system: HCC-2998 colon
[27] = system: HOP-92 NSCLC
[28] = system: HCT-116 colon
[29] = system: HCT-15 colon
[30] = system: SF-539 CNS
[31] = system: CCRF-CEM leukemia
[32] = system: SN12C renal
[33] = system: EKVX NSCLC
[34] = system: DLD-1 colon
[35] = system: SNB-78 CNS
[36] = system: IGROV1 ovarian
[37] = system: DMS 273 small cell lung
[38] = system: LOX IMVI melanoma
[39] = system: SK-MEL-2 melanoma
[40] = system: UACC-257 melanoma
[41] = system: OVCAR-5 ovarian
[42] = system: NCI-H522 lung
[43] = system: DMS 114 small cell lung
[44] = system: ACHN renal
[45] = system: HOP-18 NSCLC
[46] = system: HT29 colon
[47] = system: SK-MEL-5 melanoma
[48] = system: NCI-H226 lung
[49] = system: A549 NSCLC
[50] = system: OVCAR-4 ovarian
[51] = system: HOP-62 NSCLC
[52] = system: K-562 leukemia
[53] = system: MALME-3M melanoma
[54] = system: UO-31 renal
[55] = system: SK-OV-3 ovarian
[56] = system: MOLT-4 leukemia
[57] = system: XF 498 CNS
[58] = system: SR leukemia

C1CSCCSCCCS[C@@H]2CCCCC2SC1 (stereo partly specified)
TGI [1]: > 100 µM
TGI [2]: > 100 µM
TGI [3]: > 100 µM
TGI [4]: > 100 µM
TGI [5]: > 100 µM
TGI [6]: > 100 µM
TGI [7]: > 100 µM
TGI [8]: > 100 µM
TGI [9]: > 100 µM
TGI [10]: > 100 µM
TGI [11]: > 100 µM
TGI [12]: > 100 µM
TGI [13]: > 100 µM
TGI [14]: 52.6 µM
TGI [15]: > 100 µM
TGI [16]: > 100 µM
TGI [17]: > 100 µM
TGI [18]: > 100 µM
TGI [19]: > 100 µM
TGI [20]: > 100 µM
TGI [21]: > 100 µM
TGI [22]: 53.5 µM
TGI [23]: > 100 µM
TGI [24]: > 100 µM
TGI [25]: > 100 µM
TGI [26]: > 100 µM
TGI [27]: > 100 µM
TGI [28]: > 100 µM
TGI [29]: 28.8 µM
TGI [30]: > 100 µM
TGI [31]: 88.7 µM
TGI [32]: > 100 µM
TGI [33]: > 100 µM
TGI [34]: > 100 µM
TGI [35]: > 100 µM
TGI [36]: > 100 µM
TGI [37]: > 100 µM
TGI [38]: > 100 µM
TGI [39]: > 100 µM
TGI [40]: > 100 µM
TGI [41]: > 100 µM
TGI [42]: > 100 µM
TGI [43]: 65.4 µM
TGI [44]: > 100 µM
TGI [45]: > 100 µM
TGI [46]: > 100 µM
TGI [47]: > 100 µM
TGI [48]: > 100 µM
TGI [49]: > 100 µM
TGI [50]: > 100 µM
TGI [51]: > 100 µM
TGI [52]: 96.1 µM
TGI [53]: > 100 µM
TGI [54]: > 100 µM
TGI [55]: > 100 µM

C1CCC(N=C2N(C3CCCCC3)C(=NC3CCCCC3)N2C2CCCCC2)CC1
TGI [1]: > 100 µM
TGI [2]: > 100 µM
TGI [4]: > 100 µM
TGI [5]: > 100 µM
TGI [6]: > 100 µM
TGI [7]: > 100 µM
TGI [8]: > 100 µM
TGI [9]: > 100 µM
TGI [56]: > 100 µM
TGI [10]: > 100 µM
TGI [11]: > 100 µM
TGI [12]: > 100 µM
TGI [13]: > 100 µM
TGI [14]: > 100 µM
TGI [15]: > 100 µM
TGI [57]: > 100 µM
TGI [58]: > 100 µM
TGI [16]: > 100 µM
TGI [17]: > 100 µM
TGI [18]: > 100 µM
TGI [19]: > 100 µM
TGI [20]: > 100 µM
TGI [21]: > 100 µM
TGI [22]: > 100 µM
TGI [23]: > 100 µM
TGI [25]: > 100 µM
TGI [26]: > 100 µM
TGI [27]: > 100 µM
TGI [28]: > 100 µM
TGI [29]: > 100 µM
TGI [31]: > 100 µM
TGI [32]: > 100 µM
TGI [33]: > 100 µM
TGI [34]: > 100 µM
TGI [36]: > 100 µM
TGI [37]: > 100 µM
TGI [38]: > 100 µM
TGI [39]: > 100 µM
TGI [40]: > 100 µM
TGI [41]: > 100 µM
TGI [42]: > 100 µM
TGI [43]: > 100 µM
TGI [44]: > 100 µM
TGI [45]: > 100 µM
TGI [46]: > 100 µM
TGI [47]: > 100 µM
TGI [49]: > 100 µM
TGI [50]: > 100 µM
TGI [51]: > 100 µM
TGI [52]: > 100 µM
TGI [53]: > 100 µM
TGI [54]: > 100 µM
TGI [55]: > 100 µM

O=C1NC(=O)C2C(=O)NC(=O)C1C2Cc1ccco1 (stereo unspecified)
TGI [1]: > 100 µM
TGI [2]: > 100 µM
TGI [3]: > 100 µM
TGI [4]: > 100 µM
TGI [5]: > 100 µM
TGI [6]: > 100 µM
TGI [7]: > 100 µM
TGI [8]: > 100 µM
TGI [9]: > 100 µM
TGI [56]: > 100 µM
TGI [10]: > 100 µM
TGI [11]: > 100 µM
TGI [12]: > 100 µM
TGI [13]: > 100 µM
TGI [14]: > 100 µM
TGI [15]: > 100 µM
TGI [57]: > 100 µM
TGI [17]: > 100 µM
TGI [18]: > 100 µM
TGI [19]: > 100 µM
TGI [21]: > 100 µM
TGI [22]: > 100 µM
TGI [23]: > 100 µM
TGI [24]: > 100 µM
TGI [25]: > 100 µM
TGI [26]: > 100 µM
TGI [27]: > 100 µM
TGI [29]: > 100 µM
TGI [30]: > 100 µM
TGI [31]: > 100 µM
TGI [32]: > 100 µM
TGI [33]: > 100 µM
TGI [34]: > 100 µM
TGI [35]: > 100 µM
TGI [36]: > 100 µM
TGI [37]: > 100 µM
TGI [38]: > 100 µM
TGI [39]: > 100 µM
TGI [40]: > 100 µM
TGI [41]: > 100 µM
TGI [42]: > 100 µM
TGI [43]: > 100 µM
TGI [44]: > 100 µM
TGI [46]: > 100 µM
TGI [47]: > 100 µM
TGI [48]: > 100 µM
TGI [49]: > 100 µM
TGI [50]: > 100 µM
TGI [52]: > 100 µM
TGI [53]: > 100 µM
TGI [54]: > 100 µM
TGI [55]: > 100 µM

CC(=O)OC1COC(N2CCc3cc([N+](=O)[O-])ccc32)C(OC(C)=O)C1OC(C)=O (stereo unspecified)
TGI [1]: > 100 µM
TGI [2]: > 100 µM
TGI [3]: > 100 µM
TGI [4]: > 100 µM
TGI [5]: > 100 µM
TGI [6]: > 100 µM
TGI [7]: > 100 µM
TGI [8]: > 100 µM
TGI [9]: > 100 µM
TGI [56]: > 100 µM
TGI [10]: > 100 µM
TGI [11]: > 100 µM
TGI [12]: > 100 µM
TGI [14]: > 100 µM
TGI [15]: > 100 µM
TGI [57]: > 100 µM
TGI [58]: > 100 µM
TGI [16]: > 100 µM
TGI [17]: > 100 µM
TGI [18]: > 100 µM
TGI [19]: > 100 µM
TGI [20]: > 100 µM
TGI [21]: > 100 µM
TGI [22]: > 100 µM
TGI [23]: > 100 µM
TGI [24]: > 100 µM
TGI [25]: > 100 µM
TGI [27]: > 100 µM
TGI [29]: > 100 µM
TGI [30]: > 100 µM
TGI [31]: > 100 µM
TGI [33]: > 100 µM
TGI [34]: > 100 µM
TGI [35]: > 100 µM
TGI [36]: > 100 µM
TGI [37]: > 100 µM
TGI [38]: > 100 µM
TGI [39]: > 100 µM
TGI [40]: > 100 µM
TGI [42]: > 100 µM
TGI [43]: > 100 µM
TGI [44]: > 100 µM
TGI [46]: > 100 µM
TGI [47]: > 100 µM
TGI [48]: > 100 µM
TGI [49]: > 100 µM
TGI [50]: > 100 µM
TGI [51]: > 100 µM
TGI [52]: > 100 µM
TGI [54]: > 100 µM
TGI [55]: > 100 µM
